Results from US4335127A, “Piperidinylalkyl quinazoline compounds, composition and method of use” (Janssen Pharmaceutica, N.V., priority 1979, dated 1982).

Assays:
[1] = tested on: cyanosis of ears and extremities induced by compound 48/80 in rats; conditions: rats treated with compound 48/80; cited from earlier work
[2] = tested on: lesions in the glandular area of the stomach and distension of the stomach induced by compound 48/80 in rats; conditions: rats treated with compound 48/80; cited from earlier work
[3] = tested on: lesions in the glandular area of the stomach and distension of the stomach induced by compound 48/80 in rats; experiment: Gastric lesion test: lesions induced by compound 48/80 (Test 2); assay type: in vivo, rat (male, Wistar inbred strain); conditions: oral, 2 hours before compound 48/80 (1 mg/kg i.v.); stomachs inspected 4 hours after
Experimental: (§1) The shock, followed by dead, can be avoided if the rats are pretreated with a classical H 1 antagonist.
(§2) Male rats of a Wistar inbred strain, weighing 220-250 g, are starved overnight, water being available ad libitum. The test compounds are administered orally as a solution or as a suspension in aqueous medium. A control rat and a "blank" rat receive the test compound. One hour later 5-[4-(diphenylmethyl)-1-piperazinylmethyl]-1-methyl-1H-benzimidazole-2-methanol is administered subcutaneously to all rats at the dose of 2.5 mg/kg. […] Five minutes after the injection the intensity of purple-blue coloration (cyanosis) of the extremities is scored as 0 (absent), +(moderate) or ++(intense). Four hours after the intravenous injection of compound 48/80 the rats are decapitated and the stomachs are removed. Subsequently the stomachs are inspected for distension and contents (blood, fluid, food) and thoroughly rinsed. The macroscopic lesions are scored from 0 to + ++, 0 corresponding to complete absence of visible lesions and the highest score corresponding to reddish rough patches covering more than half the glandular area.

[4] = tested on: cyanosis of ears and extremities induced by compound 48/80 in rats; experiment: Cyanosis of ears and extremities induced by compound 48/80 (Test 2); assay type: in vivo, rat (male, Wistar inbred strain); conditions: Rattus norvegicus, po, 5 min; read-out: Cyanosis ED50 (dose at which cyanosis of ears and extremities is completely absent in 50% of the test rats)
Experimental: as §1, §2

[5] = tested on: Caudal Artery of the Rat (effect of serotonin); experiment: Antagonistic Activity on the Effect of Serotonin on the Caudal Artery of the Rat (Test 1); conditions: serotonin 40 ng/ml; 5 minutes after adding the drug; rat caudal artery strips
Experimental: Caudal arteries from fasted male rats (210-235 g) are used in the test. Two helical strips having a length of 5-6 cm and a width of 2 mm are obtained from each artery and mounted vertically in a 100 ml organ bath containing an oxygenated Krebs-Henseleit solution. Submaximal contractions of the arterial strips are produced by adding single doses of serotonin (40 ng/ml) to the organ bath for 2 minutes with each time an interval of 10 minutes. The amplitude of the contraction is measured before and 5 minutes after adding the drug. After washing out, the agonist is added again three times in order to see whether the contraction is restored and normalized. […] In this connection the ED50 -values are the minimal concentrations of the concerned drugs which reduce the amplitude of the contraction to at least 50% of its normal value.

SMILES	prevention of the cyanosis of ears and extremities (known serotonin antagonists) [1]	prevention of the abnormal gastric distension (known serotonin antagonists) [2]	prevention of the lesions in the glandular area of the stomach (known serotonin antagonists) [2]	G. lesion ED50 (dose at which distension of the stomach and lesions in the glandular area are completely absent in 50% of the test rats) [3]	ED50 [4]	Caudal artery ED50 (minimal concentration which reduces the amplitude of the serotonin-induced contraction to at least 50% of its normal value) [5]
O=C(CCCN1CCC2(CC1)C(=O)NCN2c1ccccc1)c1ccc(F)cc1 [spiperone]	prevent completely	prevent completely	prevent completely	–	–	–
NC(=O)C1(N2CCCCC2)CCN(CCCC(=O)c2ccc(F)cc2)CC1 [pipamperone]	prevent completely	prevent completely	prevent completely	–	–	–
CN(C)CCCSc1ccccc1NC(=O)/C=C/c1ccccc1 [cinanserin]	prevent completely	prevent completely	prevent completely	–	–	–
CC[C@@H](CO)NC(=O)[C@@H]1C=C2c3cccc4c3c(cn4C)C[C@H]2N(C)C1 [methysergide]	prevent completely	prevent completely	prevent completely	–	–	–
CN1CCN2c3ccccc3Cc3ccccc3C2C1 (stereo not drawn) [mianserin]	prevent completely	prevent completely	prevent completely	–	–	–
CN1CCC(=C2c3ccccc3CCc3sccc32)CC1 [pizotifen]	prevent completely	prevent completely	prevent completely	–	–	–
CN1CCC(=C2c3ccccc3C=Cc3ccccc32)CC1 [cyproheptadine]	prevent completely	prevent completely	prevent completely	–	–	–
CN1C[C@H](CNC(=O)OCc2ccccc2)C[C@@H]2c3cccc4c3c(cn4C)C[C@H]21 [metergoline]	prevent completely	prevent completely	prevent completely	–	–	–
O=C(c1ccc(F)cc1)C1CCN(CCN2C(=O)Nc3ccccc3C2c2ccccc2)CC1 (stereo not drawn) [drawing 34: R^6=C6H5, Alk=(CH2)2, Ar=4-FC6H4, 3-[2-[4-(4-fluorobenzoyl)-1-piperidinyl]ethyl]-3,4-dihydro-4-phenyl-2(1H)-quinazolinone]	–	–	–	0.08 mg/kg	0.08 mg/kg	0.6 ng/mL
